This is an account of results in patent US6379959B1, “Metalocarboxypeptidase inhibitors and derived molecules used as antitumor agents” (Universitat Autonoma de Barcelona, priority 1996, dated 2002).

For assay [1], the system named is cell line Capan-1. The assay can be described thus: Studies of PCI disappearance from the culture medium. The format is cell-based, human. As to conditions: 50 μg/mL flask, 24 h; CPA inhibitory activity and ELISA. The protocol: The studies of PCI disappearance were carried out in the cell line Capan-1 by employing various concentrations of PCI.
In three small culture flasks (of 25 cm^2), 5×10^5 cells were placed in each and they were cultivated in medium DMEM+10%FBS until the moment in which, through microscope observation, it could be seen that they had reached 75% of confluence. At this moment, the medium was removed and was substituted by new DMEM+10%FBS (50 μg/mL flask) and by medium with 200 μg/mL of PCI (flask 200 μg/mL). The three flasks were cultivated for a further 24 h. From each of these, samples of […] of culture medium were extracted at half hour intervals. In each of these samples, the existing concentration of PCI was determined by employing two methods (described in the bibliography cited in point 4.A.):
Tests of carboxypeptidase A inhibitory activity
In such tests, samples taken from the control flask at the same intervals were used as blanks.
One of the ELISAs that was done with the samples coming from the 200 μg/mL flask was carried out under special conditions in the first step (fixation of the antigens); concretely, by using a concentration of 0.5 M NaCl.
On the technique in general: An ELISA detects its analyte on a solid surface through an enzyme-linked reagent.

The subject of assay [2] is human pancreatic adenocarcinoma cell line MDAPanc-3. The assay can be described thus: Proliferation test by recount of the cells number (hemocytometer), MDAPanc-3. Type of assay: cell-based. The protocol: In this assay and with the aim of determining whether the presence in the culture medium produces some effect on the growth in vitro of the cell lines, the final number of the cells when the control reaches monolayer is determined, in the presence and in the absence of the inhibitor. The calculation is made by direct recount of the number of cells using trypsinization and subsequent recount in a hemocytometer. The detailed method is as follows:
1. In each of the three culture flasks of 25 cm^2, 5×10^5 cells are seed and a total volume of the culture medium is added (DMEM with a 10% of fetal bovine serum or synthetic serum, according to the test) of 5 mL:
A first flask is used as control and no PCI is added to it.
PCI is added to a second flask some hours after the culture has started and once the cells have adhered to the bottom of the flask. This type of test is defined as postadherence test.
PCI is added to a third flask at the same time as the culture has begun, before the cells have had time to adhere to the bottom of the flask, thus constituting the preadherence test.
2. The cells are maintained in an incubator at 37° C., 87% of relative humidity and 10% of CO2. The medium contained in the flasks is changed every 3-4 days. Medium free of PCI is added to the control flask; medium with PCI is added to the other two.
3. When the culture of one of the flasks reaches a state of monolayer (or after a specific number of days), we proceed to count the number of cells in each one of them. Firstly and in order to do that, the cells are trypsinized using the following steps:
Immediately after, the recount of the number of cells is done. To do that, an aliquot of 10 μL is taken and it is placed in an eppendorf tube. 10 μL of a solution of trypan blue dye is added. Then, it is well mixed and two aliquots of 10 μL of the mixture are taken and placed in the two zones of an hemocytometer which is placed in the inverted microscope.
The live cells are observed as being refringent and clear, while the dead ones are observed as opaque and dyed blue, for the staining is only able to penetrate dead cells. The total number of cells of the W zone of the hemocytometer is counted, differentiating between the live and the dead ones. Based on this recount, the total number of cells that was in the initial suspension (which will be the total number of cells that was in the culture) is calculated by multiplying the number obtained by 2×10^4. The viability (in %) is calculated by dividing the number of live cells by the total number of counted cells and multiplying it by 100.
The effect produced by the presence of PCI in the medium is expressed as % of cell growth inhibition, which is calculated according to the formula [formula] […]

Positions of bridges follow the written chain, without caps; N, C: chain ends. No end group written: not given here.

Consider “PCI: potato carboxypeptidase inhibitor, isoform IIa, obtained by recombinant DNA techniques in E. coli (SEQ ID NO.2) (EQHADPICNKPCKTHDDCSGAWFCQACWNSARTCGPYVG; disulfide 12-27, 18-34, 8-24)”, for which the “internalization (disappearance of PCI from the culture medium)” value in assay [1] was “clearly internalized by the cells”. Also, the “Percentage of Growth Inhibition” value is 19.1 ± 14.5% in assay [2] (5 mg PCI/mL, Postadhesion); 20.7 ± 6.9% in assay [2] (5 mg PCI/mL, Preadhesion, DMEM+10%BMS until controls confluent); 14.3 ± 12.4% in assay [2] (10 mg PCI/mL, Postadhesion); 14.6 ± 14.2% in assay [2] (10 mg PCI/mL, Preadhesion).
